Test results taken from patent publication US20220087987A1, “A METHOD FOR TREATING SWI/SNF COMPLEX-DEFICIENT CANCERS COMPRISING GLUTATHIONE (GSH) METABOLIC PATHWAY INHIBITOR” (National Cancer Center, priority 2018, published 2022).
Counter-ions that a name gives are not always drawn. Like-named read-outs stand apart in the source and are kept apart here.

How the values were obtained:
[1] = Drug library screen, cell viability (CellTiter-Glo); format: cell-based, human; details: human
Summary of the method: (§1)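 ARID1A-WT and ARID1A-KO HCT116 cells screened against the library; viability read after 5 days by CellTiter-Glo luminescence, expressed relative to DMSO-treated cells. Hits: KO viability below 40% with WT viability above 80%.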

[2] = system: ARID1A-KO HCT116 cells; experiment: as above; format: cell-based, human; details: Homo sapiens, HCT-116, 120 h, read-out: Cell viability, KO
Summary of the method: as §1

[3] = HCT116 ARID1A-WT, 10 μM for 5 days, relative to cells treated with solvent (DMSO), read-out: Cell viability, WT
[4] = HCT116 ARID1A-KO, 10 μM for 5 days, relative to cells treated with solvent (DMSO)

| SMILES | viability at 5 days, 10 μM [1, 3] | viability at 10 µM [2, 4] | other results |
| --- | --- | --- | --- |
| C[C@]1(c2nc3c(C(N)=O)cccc3[nH]2)CCCN1 [ABT-888 (Veliparib), Veliparib] | 62.7% | 53.3% |  |
| C/C=C(/C)C(=O)O[C@H]1C(C)=C2[C@H]([C@@H]1OC(=O)CCCCCCC)[C@@](C)(OC(C)=O)C[C@H](OC(=O)CCC)[C@@]1(O)[C@H]2OC(=O)[C@@]1(C)O [Thapsigargin] |  |  | viability at 5 days, 10 μM [1]: 2.63%; viability at 10 µM [2]: 2.88% |
| Cc1nc(Nc2ncc(C(=O)Nc3c(C)cccc3Cl)s2)cc(N2CCN(CCO)CC2)n1 [dasatinib] | 33.5% | 37.8% |  |
| CC1=C(O)C(=O)[C@@H]2O[C@@H]2C1=O [Terreic acid] |  | 90.5% | viability [1, 3]: 88.9% |
| CC1=C(/C=C/C(C)=C/C=C/C(C)=C/C(=O)O)C(C)(C)CCC1 [tretinoin] | 77.7% | 96.3% |  |
| COc1cc(Nc2ncc3c(n2)-c2ccc(Cl)cc2C(c2c(F)cccc2OC)=NC3)ccc1C(=O)O [MLN8237] | 36.8% | 39.1% |  |
| O=c1cc(-c2ccccc2)oc2cc(O)c(O)c(O)c12 [Baicalein] | 94.6% | 93.7% |  |
| CN(Cc1cnc2nc(N)nc(N)c2n1)c1ccc(C(=O)N[C@@H](CCC(=O)O)C(=O)O)cc1 [Methotrexate] | 43% | 43.9% |  |
| CCCCCCCCCCC1=C(C)C(=O)C(OC)=C(OC)C1=O [Decylubiquinone] | 85.7% | 100% |  |
| N=C(N)NN [Aminoguanidine, HCl] | 188% | 128% |  |
| CN(C)CCCN1c2ccccc2Sc2ccc(Cl)cc21 [chlorpromazine hydrochloride] | 7.83% | 15.6% |  |
| Cn1nnc2c(C(N)=O)ncn2c1=O [temozolomide] | 84.4% | 104% |  |
| CC1(C)CCC(C)(C)c2cc(NC(=O)c3ccc(C(=O)O)cc3)ccc21 [tamibarotene] | 77.3% | 101% |  |
| CN1C(=O)[C@]2(Cc3cn([C@]45C[C@@]67SS[C@@](CO)(C(=O)N6[C@H]4Nc4ccccc45)N(C)C7=O)c4ccccc34)SS[C@@]1(CO)C(=O)N2C [Chetomin] |  | 4.69% | viability [1, 3]: 4.21% |
| Nc1ncn([C@H]2C[C@H](O)[C@@H](CO)O2)c(=O)n1 [Decitabine] | 30.8% | 30.4% |  |
| CNC(=O)c1ccc(N2C(=S)N(c3ccc(C#N)c(C(F)(F)F)c3)C(=O)C2(C)C)cc1F [MDV3100] | 88.8% | 94.9% |  |
| CNc1ccc2oc(C[C@H]3O[C@@]4(CC[C@H]3C)O[C@H]([C@H](C)C(=O)c3ccc[nH]3)[C@H](C)C[C@H]4C)nc2c1C(=O)O [A23187] |  | 8.67% | viability [1, 3]: 6.25% |
| CC(C)C[C@H](NC(=O)[C@@H](O)[C@H](N)Cc1ccccc1)C(=O)O [Bestatin] | 68.6% | 66.2% |  |
| NNCCc1ccccc1 [Phenelzine] | 101% | 119% |  |
| COc1cc2c(Nc3ccc(Br)cc3F)ncnc2cc1OCC1CCN(C)CC1 [Vandetanib] | 14.1% | 28.9% |  |

| SMILES | viability at 5 days, 10 μM [1, 3] | viability at 10 µM [2, 4] | other results |
| --- | --- | --- | --- |
| O=C([O-])c1ccccc1O.[Na+] [Sodium salicylate] |  |  | viability [1]: 177%; viability at 10 µM [2]: 125% |
| O=c1c(-c2ccc(O)cc2)coc2cc(O)cc(O)c12 [Genistein] |  | 118% | viability [1, 3]: 173% |
| NCC(=O)Nc1ccc(-n2nc(C(F)(F)F)cc2-c2ccc3c(ccc4ccccc43)c2)cc1 [OSU-03012] | 91.9% | 105% |  |
| C[C@@H]1C[C@@H]([C@H](O)CC2CC(=O)NC(=O)C2)C(=O)[C@@H](C)C1 [Cycloheximide] |  | 10.1% | viability [1, 3]: 9.33% |
| CNC(=O)[C@H](Cc1c[nH]c2ccccc12)NC(=O)[C@@H](CC(=O)NO)CC(C)C [GM 6001] | 188% | 123% |  |
| COc1cccc2c1C(=O)c1c(O)c3c(c(O)c1C2=O)C[C@@](O)(C(C)=O)C[C@@H]3O[C@H]1C[C@H](N)[C@H](O)[C@H](C)O1 [Daunorubicin, HCl] | 5.21% |  | viability at 10 µM [2]: 4.45% |
| CC(C)C[C@@H](N)[C@H](O)C(=O)N[C@H](C(=O)N[C@H](C(=O)N[C@@H](CC(=O)O)C(=O)O)C(C)C)C(C)C [Amastatin] | 102% | 110% |  |
| O=C(O)c1nn(Cc2ccc(Cl)cc2Cl)c2ccccc12 [Lonidamine] | 98.4% | 116% |  |
| C[C@]1(O)C[C@@H](c2nc(-c3ccc4ccc(-c5ccccc5)nc4c3)c3c(N)nccn32)C1 [OSI-906] | 59.1% | 79.1% |  |
| O[C@H]1[C@H]2[C@H](O)CCCN2C[C@H]1O [Swainsonine] |  | 110% | viability [1, 3]: 115% |
| Oc1c2ccccc2c2c3c(cccc13)N=N2 [SP600125] | 172% | 105% |  |
| O=c1c2ccccc2[nH]c(=S)n1CCN1CCC(=C(c2ccc(F)cc2)c2ccc(F)cc2)CC1 [Diacylglycerol kinase inhibitor II] | 141% | 171% |  |
| CC[C@@]1(O)C(=O)OCc2c1cc1n(c2=O)Cc2cc3ccccc3nc2-1 [Camptothecin] | 2.97% | 4.03% |  |
| Cc1c(C)c2c(c(C)c1O)CCC(C)(COc1ccc(CC3SC(=O)NC3=O)cc1)O2 (stereo not shown) [Troglitazone] | 101% | 94.7% |  |
| Nc1cccc2c1CN(C1CCC(=O)NC1=O)C2=O (stereo not shown) [lenalidomide] | 91.1% | 112% |  |
| CN[C@@H]1C[C@H]2O[C@@](C)([C@@H]1OC)n1c3ccccc3c3c4c(c5c6ccccc6n2c5c31)C(=O)NC4 [Staurosporine] |  | 4.14% | viability [1, 3]: 5.22% |
| Cc1ncc2ccccc2c1C#N [4-cyano-3-methylisoquinoline] | 143% | 164% |  |
| C/C=C/C/C=C/CCC(=O)[C@H]1O[C@H]1C(N)=O [Cerulenin] | 70% | 68.6% |  |
| O=C1NC(=O)c2c1c1c3ccccc3[nH]c1n1cncc21 [isogranulatimide] | 118% | 151% |  |
| CNCCCN1c2ccccc2CCc2ccccc21 [desipramine hydrochloride] | 34.6% | 63.1% |  |

| SMILES | viability at 5 days, 10 μM [1, 3] | viability at 10 µM [2, 4] | other results |
| --- | --- | --- | --- |
| Cn1c(=O)c2[nH]cnc2n(C)c1=O [Theophylline] | 203% | 140% |  |
| C[C@@H]1C[C@H]2O[C@@H]2/C=C\C=C\C(=O)Cc2c(Cl)c(O)cc(O)c2C(=O)O1 [Radicicol] | 7.12% | 5.65% |  |
| CNC(=O)c1ccccc1Sc1ccc2c(/C=C/c3ccccn3)n[nH]c2c1 [Axitinib] | 36.4% | 42.6% |  |
| COc1cc2nc(N3CCCN(C)CC3)nc(NC3CCN(Cc4ccccc4)CC3)c2cc1OC [BIX01294] | 2.57% | 4.49% |  |
| CC1=NS(=O)(=O)c2cc(Cl)ccc2N1 [Diazoxide] | 103% | 115% |  |
| COc1cc(O)c(CC=C(C)C)c(O)c1C(=O)/C=C/c1ccc(O)cc1 [Xanthohumol] | 104% | 112% |  |
| CCOC(=O)C1=C(C)NC(=S)NC1c1cccc(O)c1 (stereo not shown) [Monastrol] | 102% | 104% |  |
| N#CC[C@H](C1CCCC1)n1cc(-c2ncnc3[nH]ccc23)cn1 [Ruxolitinib] | 58.1% | 86.1% |  |
| CS(=O)(=O)Nc1ccc([N+](=O)[O-])cc1OC1CCCCC1 [NS-398] | 177% |  | viability at 10 µM [2]: 142% |
| Cc1ccc(NC(=O)c2ccc(CN3CCN(C)CC3)cc2)cc1Nc1nccc(-c2cccnc2)n1 [imatinib mesylate] | 37.2% | 55.4% |  |
| CC(C)C(=O)Nc1ccc([N+](=O)[O-])c(C(F)(F)F)c1 [Flutamide] | 163% | 126% |  |
| COc1c(C=O)c(O)cc2c1C(=O)c1ccccc1C2=O [Damnacanthal] | 185% | 138% |  |
| NC(=O)c1cccc2cn(-c3ccc([C@@H]4CCCNC4)cc3)nc12 [MK-4827 (Niraparib), Niraparib] | 29.3% | 28.7% |  |
| CC1=C2C(=O)[C@H]3[C@@H](CC=C4C[C@@H](O)CC[C@@]43C)[C@@H]2CC[C@]12O[C@@H]1C[C@H](C)CN[C@H]1[C@H]2C [Jervine] |  | 90.1% | viability [1, 3]: 74.4% |
| CCCCC[C@H](CC(=O)NO)C(=O)N[C@H](C(=O)N1CCC[C@H]1CO)C(C)C [Actinonin] | 88.5% | 103% |  |
| NC(=O)c1ccccc1 [Benzamide] | 188% | 134% |  |
| CO[C@@H]1[C@H](OC(=O)/C=C/C=C/C=C/C=C/C(=O)O)CC[C@]2(CO2)[C@H]1[C@@]1(C)O[C@@H]1CC=C(C)C [Fumagillin] | 96.4% |  | viability at 10 µM [2]: 82.2% |
| Cc1cc(N)c2ccccc2[n+]1CCCCCCCCCC[n+]1c(C)cc(N)c2ccccc21 [Dequalinium] | 6.38% | 5.24% |  |
| C[C@@]12C(=O)OC(=O)[C@]1(C)[C@H]1CC[C@@H]2O1 [Cantharidin] |  | 18.2% | viability [1, 3]: 26.2% |
